Activity calls are given as the source filed them. The rule behind the calls is not given here.
How the values were obtained:
[1] = Binding affinity to viologen paraquat cation at pH 7.2 by microcalorimetric titration method
[2] = Binding affinity to viologen diquat cation at pH 7.2 by microcalorimetric titration method
[3] = Binding affinity to viologen paraquat cation at pH 1.5 by microcalorimetric titration method
[4] = Binding affinity to viologen diquat cation at pH 1.5 by microcalorimetric titration method
[5] = Binding affinity to viologen paraquat cation assessed as compound-viologen complex formation by NMR spectroscopy
[6] = Binding affinity to viologen diquat cation assessed as compound-viologen complex formation by NMR spectroscopy
[7] = Binding affinity to viologen paraquat cation assessed as compound-viologen complex stability at pH 2 by isothermal calorimetry
[8] = Binding affinity to viologen paraquat cation assessed as decrease in hydroxyl radical production at pH 7.2 by cyclic voltammetry
[9] = Binding affinity to viologen diquat cation assessed as decrease in hydroxyl radical production at pH 7.2 by cyclic voltammetry
Mus musculus [10] = experiment: Reduction of viologen poisoning in Kunming mouse assessed as viologen-associated mortality rate at 100 uL/20g body weight, iv for 13 days measured on day 14; assay type: functional; design: scale not given: the % may be the effect or the level left
Mus musculus [11] = experiment: Reduction of viologen poisoning in Kunming mouse assessed as change in body weight at 100 uL/20g body weight, iv for 13 days measured on day 14 (reference value: 14 g); assay type: functional
Mus musculus [12] = experiment: Toxicity in Kunming mouse assessed as change in body weight at 100 uL/20g body weight, iv for 13 days measured on day 14 (reference value: 32.8 +/- 3.8 g); assay type: organism-based; details: in vivo, 312 h
Mus musculus [13] = experiment: Reduction of viologen poisoning in Kunming mouse assessed as protection from viologen-associated pathological changes in lung at 100 uL/20g body weight, iv for 13 days measured on day 14 by hematoxylin and eosin staining-based microscopy; assay type: functional, organism-based
Mus musculus [14] = experiment: Reduction of viologen poisoning in Kunming mouse assessed as protection from viologen-associated pathological changes in liver at 100 uL/20g body weight, iv for 13 days measured on day 14 by hematoxylin and eosin staining-based microscopy; assay type: functional, organism-based
Mus musculus [15] = experiment: Reduction of viologen poisoning in Kunming mouse assessed as viologen-associated mortality rate at 100 uL/20g body weight, iv administered immediately after viologen challenge for 13 days measured on day 14; assay type: functional; design: scale not given: the % may be the effect or the level left
Mus musculus [16] = experiment: Reduction of viologen poisoning in Kunming mouse assessed as viologen-associated mortality rate at 100 uL/20g body weight, iv administered 1 hr after viologen challenge for 13 days measured on day 14; assay type: functional; design: scale not given: the % may be the effect or the level left
Mus musculus [17] = experiment: Reduction of viologen poisoning in Kunming mouse assessed as viologen-associated mortality rate at 100 uL/20g body weight, iv administered 30 mins after viologen challenge for 13 days measured on day 14; assay type: functional; design: scale not given: the % may be the effect or the level left
Mus musculus [18] = experiment: Reduction of viologen poisoning in Kunming mouse assessed as viologen-associated mortality rate at 100 uL/20g body weight, iv administered 2 hrs after viologen challenge for 13 days measured on day 14; assay type: functional; design: scale not given: the % may be the effect or the level left
Mus musculus [19] = experiment: Reduction of viologen poisoning in Kunming mouse assessed as protection from viologen-associated pathological changes in lung at 100 uL/20g body weight, iv administered immediately after viologen challenge for 13 days measured on day 14 by hematoxylin and eosin staining-based microscopy; assay type: functional, organism-based
Mus musculus [20] = experiment: Reduction of viologen poisoning in Kunming mouse assessed as protection from viologen-associated pathological changes in lung at 100 uL/20g body weight, iv administered 30 mins after viologen challenge for 13 days measured on day 14 by hematoxylin and eosin staining-based microscopy; assay type: functional, organism-based
Mus musculus [21] = experiment: Reduction of viologen poisoning in Kunming mouse assessed as protection from viologen-associated pathological changes in lung at 100 uL/20g body weight, iv administered 1 hr after viologen challenge for 13 days measured on day 14 by hematoxylin and eosin staining-based microscopy; assay type: functional, organism-based
Mus musculus [22] = experiment: Reduction of viologen poisoning in Kunming mouse assessed as protection from viologen-associated pathological changes in lung at 100 uL/20g body weight, iv administered 2 hrs after viologen challenge for 13 days measured on day 14 by hematoxylin and eosin staining-based microscopy; assay type: functional, organism-based
Mus musculus [23] = experiment: Reduction of viologen poisoning in Kunming mouse assessed as change in body weight at 100 uL/20g body weight, iv administered 30 mins after viologen challenge for 13 days measured on day 14 (reference value: 14 g); assay type: functional
Mus musculus [24] = experiment: Reduction of viologen poisoning in Kunming mouse assessed as change in body weight at 100 uL/20g body weight, iv administered immediately after viologen challenge for 13 days measured on day 14 (reference value: 14 g); assay type: functional
Mus musculus [25] = experiment: Reduction of viologen poisoning in Kunming mouse assessed as change in body weight at 100 uL/20g body weight, iv administered 1 hr after viologen challenge for 13 days measured on day 14 (reference value: 14 g); assay type: functional
Mus musculus [26] = experiment: Reduction of viologen poisoning in Kunming mouse assessed as change in body weight at 100 uL/20g body weight, iv administered 2 hrs after viologen challenge for 13 days measured on day 14 (reference value: 14 g); assay type: functional
[27] = Binding affinity to viologen diquat cation assessed as compound-viologen complex stability at pH 2 by isothermal calorimetry
[28] = Binding affinity to viologen paraquat cation assessed as compound-viologen complex stability at pH 7.2 by isothermal calorimetry
[29] = Binding affinity to viologen diquat cation assessed as compound-viologen complex stability at pH 7.2 by isothermal calorimetry

Ks [7] | Activity [8] | Activity [9] | Ks [27] | Ks [28] | Ks [29] | SMILES | Activity [1] | Activity [2] | Activity [3] | Activity [4] | Activity [5] | Activity [6] | also measured
3.09 10^4/M | Active | Active | 5.4 10^5/M | 9.33 10^4/M | 7.95 10^5/M | O=S(=O)(O)c1cc2c(O)c(c1)Cc1cc(S(=O)(=O)O)cc(c1O)Cc1cc(S(=O)(=O)O)cc(c1O)Cc1cc(S(=O)(=O)O)cc(c1O)C2 | Active | Active | Active | Active | Active | Active | 
2.22 10^3/M | Active | Active | 2.39 10^4/M | 8.68 10^3/M | 4.57 10^4/M | O=S(=O)(O)c1cc2c(O)c(c1)Sc1cc(S(=O)(=O)O)cc(c1O)Sc1cc(S(=O)(=O)O)cc(c1O)Sc1cc(S(=O)(=O)O)cc(c1O)S2 |  |  |  |  |  |  | 

SMILES | Ks [7] | Activity [8] | Activity [9] | Ks [27] | Ks [28] | Ks [29] | Activity [1] | Activity [2] | Activity [3] | Activity [4] | Activity [5] | Activity [6] | also measured
O=S(=O)(O)c1cc2c(O)c(c1)Cc1cc(S(=O)(=O)O)cc(c1O)Cc1cc(S(=O)(=O)O)cc(c1O)Cc1cc(S(=O)(=O)O)cc(c1O)Cc1cc(S(=O)(=O)O)cc(c1O)C2 | 5.5 10^3/M | Active | Active | 1.12 10^5/M | 2.51 10^5/M | 3.23 10^6/M | Active | Active | Active | Active | Active | Active | Activity (Mus musculus [10]): 20%; Activity (Mus musculus [11]): 30.8 g; Activity (Mus musculus [12]): 33.4 g; Activity (Mus musculus [13]): Active; Activity (Mus musculus [14]): Active; Activity (Mus musculus [15]): 40%; Activity (Mus musculus [16]): 0%; Activity (Mus musculus [17]): 40%; Activity (Mus musculus [18]): 40%; Activity (Mus musculus [19]): Active; Activity (Mus musculus [20]): Active; Activity (Mus musculus [21]): Active; Activity (Mus musculus [22]): Active; Activity (Mus musculus [23]): 31 g; Activity (Mus musculus [24]): 31 g; Activity (Mus musculus [25]): 31 g; Activity (Mus musculus [26]): 31 g

From ChEMBL document CHEMBL1156249, “Highly effective binding of viologens by p-sulfonatocalixarenes for the treatment of viologen poisoning” (J Med Chem, 2009)
